One data set deals with Parkinsonian monkeys. The note with it: co-administered with levodopa to Parkinsonian monkeys; cited from earlier work.
A further data set relates to PKC. The data set can be described thus: PKC kinase activity assay kit (Assay Designs). The class given is biochemical. The note with it: for percentage PKC inhibition: PKC 10 ng/well. The method, then:
A PKC kinase activity assay kit (Assay Designs, Ann Arbor, Mich.) was used to test endoxifen PKC inhibitory activity 0.025, 0.05, 0.1, or 0.2 mM endoxifen was used in a reaction mix containing PKC 10 ng/well.

The conditions of data set [1]: cited from earlier work.
A further data set concerns male Balb/c mice. The data set can be described thus: Toxicity testing, intravenous single and repeat dose in mice. The class given is in vivo. The method, then: Endoxifen was formulated according to Example 6 and was tested for toxicity in male Balb/c mice. A single test dose at 100 mg/kg or 50 mg/kg was intravenously administered to mice. […] The mice also survived in the control group with a vehicle control that lacked endoxifen. Repeat dose toxicity study was conducted with a dose of 25 mg/kg administered consecutively for 3 days with accumulated dose of 75 mg/kg. […] The results are reported in the table below as the number of mice surviving per total.

Data set [2] in a line: Comparative pharmacokinetic study in rats. It counts as in vivo. The note with it: oral 10 mg/kg endoxifen versus 10 mg/kg tamoxifen.
The next data set deals with patients. The note with it: patients on raloxifene for osteoporosis; cited from earlier work.

Where “and” joins values, the source holds several entries; their conditions need not be identical. Identical values can stand only once. Like-named read-outs stand apart in the source and are kept apart here.

Turning to `CC/C(=C(\c1ccccc1)c1ccc(OCCN(C)C)cc1)c1ccccc1` [tamoxifen, reference compound], the “attenuation of levodopa-induced dyskinesias” value in the data set on Parkinsonian monkeys was 61%.

Take `CC/C(=C(\c1ccc(O)cc1)c1ccc(OCCNC)cc1)c1ccccc1` [Endoxifen, 4-hydroxy N-desmethyl tamoxifen]: the “percentage PKC inhibition” value is listed as 80% in the data set on PKC (0.2 mM) and 12% in the data set on PKC ([…]). For the same compound, the “potency as PKC inhibitor relative to tamoxifen” value in the data set with PKC (endoxifen versus tamoxifen) was “at least four fold more potent”. For the same compound, the “concentration in the human plasma” value in data set [1] (patients treated with tamoxifen) is recorded as 12.4 ng/mL. The Survival/Total was 4/4 in the data set with male Balb/c mice (repeat dose 25 mg/kg consecutively for 3 days, accumulated dose 75 mg/kg); “all animals survived and 4/4” in the data set with male Balb/c mice (single dose 50 mg/kg intravenous, formulated according to Example 6, 50 mg/kg); “All the mice died and 0/2” in the data set with male Balb/c mice (single dose 100 mg/kg intravenous, formulated according to Example 6, 100 mg/kg). Moreover, in the data set with male Balb/c mice (single dose 50 mg/kg intravenous), the “loss of body weight” value is reported as “no significant loss of body weight”. The “endoxifen plasma concentration compared to that after same dose of tamoxifen” value in data set [2] is on record as 10 fold.

`O=C(c1ccc(OCCN2CCCCC2)cc1)c1c(-c2ccc(O)cc2)sc2cc(O)ccc12` [raloxifene]: the “reduction in risk of mild cognitive impairment” value with patients is 33%.

In the case of “4-hydroxy tamoxifen [4-OH-tamoxifen, reference compound]”, the “concentration in the human plasma” value in data set [1] (human, in vivo) was 1 ng/mL.

(Values after patent US11672758B2, “Endoxifen methods and compositions for inhibition of protein kinase C” (Jina Pharmaceuticals, Inc., priority 2006, dated 2023).)
